Results published in ChEMBL document CHEMBL1909046, “DrugMatrix in vitro pharmacology data”.
pIC50, pKi: −log10 of the molar value.

Columns and labels:
[1] = molecular target: Sigma non-opioid intracellular receptor 1 (Homo sapiens, UniProt Q99720); test: DRUGMATRIX: Sigma1 radioligand binding (ligand: [3H] Haloperidol); assay type: cell membranes, Jurkat, Membrane; conditions: Not Active = under 50% inhibition at 10 µM; for IC50: jurkat
Progesterone receptor = molecular target: T1, Progesterone receptor (Bos taurus, UniProt Q690N0); test: DRUGMATRIX: Progesterone radioligand binding (ligand: [3H] R-5020); assay type: tissue-based, Uterus; conditions: Not Active = under 50% inhibition at 10 µM
T1 sequence (Q690N0 whole entry): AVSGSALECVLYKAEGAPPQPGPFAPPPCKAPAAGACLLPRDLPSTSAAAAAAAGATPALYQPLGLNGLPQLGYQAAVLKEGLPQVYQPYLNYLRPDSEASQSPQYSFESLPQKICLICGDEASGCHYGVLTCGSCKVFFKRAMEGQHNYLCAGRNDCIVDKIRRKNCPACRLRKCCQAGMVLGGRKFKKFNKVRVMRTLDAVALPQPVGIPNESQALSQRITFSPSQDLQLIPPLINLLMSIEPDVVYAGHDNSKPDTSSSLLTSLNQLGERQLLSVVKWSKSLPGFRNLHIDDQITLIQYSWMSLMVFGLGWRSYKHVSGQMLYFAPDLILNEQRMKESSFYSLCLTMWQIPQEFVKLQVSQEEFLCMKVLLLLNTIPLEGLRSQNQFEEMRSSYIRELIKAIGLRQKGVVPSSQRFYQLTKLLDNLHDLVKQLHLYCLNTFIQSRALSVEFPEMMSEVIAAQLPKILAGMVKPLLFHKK

[2] = molecular target: T2, Vasoactive intestinal polypeptide receptor 1 (Homo sapiens, UniProt P32241); assay type: cell membranes, Membrane; conditions: ht-29; also: in other assays of this panel Not Active means under 50% inhibition at 10 µM
T2 sequence (P32241 whole entry): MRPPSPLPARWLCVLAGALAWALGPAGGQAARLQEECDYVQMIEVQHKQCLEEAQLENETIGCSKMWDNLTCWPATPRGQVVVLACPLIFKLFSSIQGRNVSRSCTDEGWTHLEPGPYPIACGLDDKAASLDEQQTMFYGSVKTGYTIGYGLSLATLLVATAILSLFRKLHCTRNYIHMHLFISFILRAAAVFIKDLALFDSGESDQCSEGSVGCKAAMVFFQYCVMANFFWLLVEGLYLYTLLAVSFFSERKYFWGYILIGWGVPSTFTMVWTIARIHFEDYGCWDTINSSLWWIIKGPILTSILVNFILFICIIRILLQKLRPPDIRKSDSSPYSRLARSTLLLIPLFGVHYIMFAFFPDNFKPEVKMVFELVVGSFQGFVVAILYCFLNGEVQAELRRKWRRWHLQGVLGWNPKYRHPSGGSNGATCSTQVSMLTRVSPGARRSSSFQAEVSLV

[3] = molecular target: T3, Cysteinyl leukotriene receptor 1 (Homo sapiens, UniProt Q9Y271); assay type: cell membranes, CHO-K1, Membrane; conditions: for IC50: cho-k1; as to all read-outs here: in other assays of this panel Not Active means under 50% inhibition at 10 µM
T3 sequence (Q9Y271 whole entry): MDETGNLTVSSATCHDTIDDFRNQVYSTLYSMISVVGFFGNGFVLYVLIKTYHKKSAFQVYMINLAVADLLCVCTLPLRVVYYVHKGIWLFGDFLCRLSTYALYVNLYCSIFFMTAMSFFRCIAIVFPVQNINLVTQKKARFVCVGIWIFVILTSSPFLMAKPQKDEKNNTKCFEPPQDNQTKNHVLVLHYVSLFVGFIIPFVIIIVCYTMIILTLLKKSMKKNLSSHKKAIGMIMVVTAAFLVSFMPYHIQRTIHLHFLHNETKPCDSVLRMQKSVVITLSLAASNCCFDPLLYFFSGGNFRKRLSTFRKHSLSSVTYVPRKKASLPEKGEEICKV

Adenosine receptor A2a = Adenosine receptor A2a (Homo sapiens, UniProt P29274); test: DRUGMATRIX: Adenosine A2A radioligand binding (ligand: […]); assay type: cell membranes, Membrane; conditions: hek293; Not Active = under 50% inhibition at 10 µM
Adenosine receptor A2a, sequence (P29274 whole entry): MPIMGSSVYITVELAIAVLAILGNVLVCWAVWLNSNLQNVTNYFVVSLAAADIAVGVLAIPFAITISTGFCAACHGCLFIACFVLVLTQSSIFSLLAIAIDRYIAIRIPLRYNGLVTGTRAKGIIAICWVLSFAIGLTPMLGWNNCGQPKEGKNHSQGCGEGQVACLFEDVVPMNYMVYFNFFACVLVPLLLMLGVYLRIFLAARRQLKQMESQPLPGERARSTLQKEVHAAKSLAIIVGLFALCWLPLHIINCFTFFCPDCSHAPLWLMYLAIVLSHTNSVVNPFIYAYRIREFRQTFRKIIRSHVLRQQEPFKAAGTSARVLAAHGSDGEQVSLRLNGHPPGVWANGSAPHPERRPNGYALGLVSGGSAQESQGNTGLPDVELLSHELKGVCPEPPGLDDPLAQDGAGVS

[4] = molecular target: Sodium-dependent noradrenaline transporter (Homo sapiens, UniProt P23975); test: DRUGMATRIX: Norepinephrine Transporter radioligand binding (ligand: [125I] RTI-55); assay type: cell membranes, MDCK, Membrane; conditions: Not Active = under 50% inhibition at 10 µM; for IC50: mdck; for pIC50: read-out: IC50; for pKi: read-out: Ki
Sodium-dependent noradrenaline transporter, sequence (P23975 whole entry): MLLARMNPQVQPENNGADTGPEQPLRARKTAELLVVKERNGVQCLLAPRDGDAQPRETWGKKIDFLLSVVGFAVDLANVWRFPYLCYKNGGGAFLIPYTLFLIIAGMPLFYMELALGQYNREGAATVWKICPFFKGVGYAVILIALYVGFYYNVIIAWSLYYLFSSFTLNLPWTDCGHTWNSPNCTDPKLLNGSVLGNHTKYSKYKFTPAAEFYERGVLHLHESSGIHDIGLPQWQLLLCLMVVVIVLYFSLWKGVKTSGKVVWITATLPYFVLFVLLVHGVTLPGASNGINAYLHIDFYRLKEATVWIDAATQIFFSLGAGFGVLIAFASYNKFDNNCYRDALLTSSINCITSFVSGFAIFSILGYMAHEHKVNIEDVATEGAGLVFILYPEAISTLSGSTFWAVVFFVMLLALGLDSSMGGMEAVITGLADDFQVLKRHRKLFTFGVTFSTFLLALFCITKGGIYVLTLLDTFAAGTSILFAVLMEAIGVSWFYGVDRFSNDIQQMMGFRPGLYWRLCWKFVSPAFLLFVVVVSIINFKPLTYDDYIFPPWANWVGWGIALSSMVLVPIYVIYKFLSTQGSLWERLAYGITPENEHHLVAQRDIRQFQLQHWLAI

Sigma non-opioid intracellular receptor 1, sequence (Q99720 whole entry): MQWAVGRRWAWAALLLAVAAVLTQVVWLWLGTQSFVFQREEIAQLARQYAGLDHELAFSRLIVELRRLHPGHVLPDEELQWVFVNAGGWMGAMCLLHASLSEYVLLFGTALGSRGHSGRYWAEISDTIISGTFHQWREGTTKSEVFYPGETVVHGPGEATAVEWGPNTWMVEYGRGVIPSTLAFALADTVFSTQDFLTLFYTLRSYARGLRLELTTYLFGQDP

| Structure (SMILES) | IC50 [1] | IC50 (Progesterone receptor) | IC50 [2] | pIC50 ([3]; read-out: IC50) | pKi ([3]; read-out: Ki) | IC50 (Adenosine receptor A2a) | IC50 [4] | IC50 [3] | pIC50 [4] | pKi [4] | pIC50 ([1]; read-out: IC50) | pKi ([1]; read-out: Ki) | pIC50 (Progesterone receptor; read-out: IC50) | pKi (Progesterone receptor; read-out: Ki) |
| --- | --- | --- | --- | --- | --- | --- | --- | --- | --- | --- | --- | --- | --- | --- |
| CSc1ccc(/C=C2/C(C)=C(CC(=O)O)c3cc(F)ccc32)cc1 [SULINDAC SULFIDE] | Not Active | Not Active | Not Active | 4.53 | 4.83 | Not Active | Not Active | – | – | – | – | – | – | – |
| Nc1c2c(nc3ccccc13)CCCC2 [TACRINE] | Not Active | Not Active | Not Active | – | – | Not Active | – | Not Active | 6.29 | 6.29 | – | – | – | – |
| CN1CCN(CCCN2c3ccccc3Sc3ccc(Cl)cc32)CC1 [PROCHLORPERAZINE] | – | Not Active | Not Active | – | – | Not Active | – | Not Active | – | – | 7.27 | 7.64 | – | – |
| N[C@@H](Cc1ccc(O)c(O)c1)C(=O)O [LEVODOPA] | Not Active | Not Active | Not Active | – | – | Not Active | Not Active | Not Active | – | – | – | – | – | – |
| O=NN(CCCl)C(=O)NC1CCCCC1 [LOMUSTINE] | Not Active | Not Active | Not Active | – | – | Not Active | Not Active | Not Active | – | – | – | – | – | – |
| Cc1c(C)c2c(c(C)c1O)CCC(C)(COc1ccc(CC3SC(=O)NC3=O)cc1)O2 (stereo unspecified) [TROGLITAZONE] | Not Active | Not Active | Not Active | – | – | Not Active | Not Active | Not Active | – | – | – | – | – | – |
| CCOC(=O)N1CCC(=C2c3ccc(Cl)cc3CCc3cccnc32)CC1 [LORATADINE] | Not Active | Not Active | Not Active | – | – | Not Active | Not Active | Not Active | – | – | – | – | – | – |
| Cc1cccc(N(C)C(=S)Oc2ccc3ccccc3c2)c1 [TOLNAFTATE] | Not Active | Not Active | Not Active | – | – | Not Active | Not Active | Not Active | – | – | – | – | – | – |
| NC[C@H]1CC[C@H](C(=O)O)CC1 [TRANEXAMIC ACID] | Not Active | Not Active | Not Active | – | – | Not Active | Not Active | Not Active | – | – | – | – | – | – |
| CC[C@@H](CO)NC(=O)[C@@H]1C=C2c3cccc4[nH]cc(c34)C[C@H]2N(C)C1 [METHYLERGONOVINE] | Not Active | Not Active | Not Active | – | – | Not Active | Not Active | Not Active | – | – | – | – | – | – |
| c1ccc([C@H]2CN3CCSC3=N2)cc1 [LEVAMISOLE] | Not Active | Not Active | Not Active | – | – | Not Active | Not Active | Not Active | – | – | – | – | – | – |
| OCCN(CCO)c1nc(N2CCCCC2)c2nc(N(CCO)CCO)nc(N3CCCCC3)c2n1 [DIPYRIDAMOLE] | Not Active | Not Active | Not Active | – | – | Not Active | Not Active | Not Active | – | – | – | – | – | – |
| CC(C)(C)NC(=O)[C@@H]1C[C@@H]2CCCC[C@@H]2CN1C[C@@H](O)[C@H](Cc1ccccc1)NC(=O)[C@H](CC(N)=O)NC(=O)c1ccc2ccccc2n1 | Not Active | Not Active | Not Active | – | – | Not Active | Not Active | Not Active | – | – | – | – | – | – |
| Cc1oncc1C(=O)Nc1ccc(C(F)(F)F)cc1 [LEFLUNOMIDE] | Not Active | Not Active | Not Active | – | – | Not Active | – | Not Active | – | – | – | – | – | – |
| CC/C(=C(\c1ccccc1)c1ccc(OCCN(C)C)cc1)c1ccccc1 [TAMOXIFEN] | – | – | Not Active | – | – | – | – | Not Active | 5.83 | 5.84 | – | – | 4.70 | 5.59 |
